This is an account of results in patent publication US4228174A, “Clavulanic acid ethers” (priority 1975, dated 1980).

The subject of data set [1] is Klebsiella I.112 infection. The experiment in a line: CD50 of amoxycillin alone and with synergist, oral dosing at 1, 3 and 5 hours. To be noted: (×3) mice, oral at 1, 3 and 5 hours post infection. In kind it is in vivo. Here is the method: f. CD50 values of amoxycillin alone and together with a salt of O-methylclavulanic acid or O-ethylclavulanic acid against a Klebsiella I.112 infection. The test compounds were administered orally to mice at 1, 3 and 5 hours post inter peritoneal infection.
[In these tests amoxycillin trihydrate equivalent to the stated weights of amoxycillin were used].

The test system of data set [2] is E. coli JT 39. The experiment in a line: MIC of ampicillin alone and together with sodium O-methylclavulanate. Particulars: Escherichia coli, JT39, 0 μg/ml of sodium O-methylclavulanate. In kind it is cell-based. The text has this:
(§1) c. MIC values of ampicillin alone and together with sodium O-methylclavulanate against 3 strains of Straphylococcus aureus and 3 strains of R^+ E. coli

Data set [3] deals with Staph. Russell. The description is as above. In kind it is cell-based. To be noted: Staphylococcus aureus, 0 μg/ml of sodium O-methylclavulanate.
Text: as §1

The subject of data set [4] is Staph. M B9. Described as above. Particulars: Staphylococcus aureus, 0 μg/ml of sodium O-methylclavulanate. It is filed as cell-based.
Text: as §1

Data set [5] relates to E. coli JT 98. The data set is described as above. It is filed as cell-based. Particulars: Escherichia coli, JT98, 0 μg/ml of sodium O-methylclavulanate.
Text: as §1

The subject of data set [6] is E. coli JT 68. The description is as above. In kind it is cell-based. To be noted: Escherichia coli, JT68, 0 μg/ml of sodium O-methylclavulanate.
Text: as §1

The test system of data set [7] is Staph. H. Described as above. In kind it is cell-based. To be noted: Staphylococcus aureus, 0 μg/ml of sodium O-methylclavulanate.
Text: as §1

Data set [8] deals with Staphylococcus aureus Russell. As to the kind of experiment: Standard MIC test of ampicillin in the presence of compounds of the invention. In kind it is cell-based. To be noted: ampicillin alone, read-out: Concentration of ampicillin in the absence of synergist that did not inhibit growth. The method, then:
b. When tested in standard MIC tests in combination with ampicillin the compounds of this invention are seen to enhance the effectiveness of the penicillin against various gram-positive and gram-negative organisms such as strains of Staphylococcus aureus Russell, Klebsiella aerogenes, Proteus mirabilis and Escherichia coli: for example the following MIC values against Staphylococcus aureus Russell were obtained for ampicillin in the presence of 1 μg/ml of certain compounds of the invention:
None of the synergists inhibited the growth of the test organism at 5 μg/ml.

Data set [9] deals with T1, Escherichia coli JT410 β-lactamase (Escherichia coli, UniProt P00811).
T1 construct: host or cells: Escherichia coli JT410
As to the kind of experiment: β-lactamase inhibition I50. It is filed as biochemical.

For data set [10], the target named is Klebsiella aerogenes E70 β-lactamase. The experiment in a line: β-lactamase inhibition I50. In kind it is biochemical.
For data set [11], the target named is P. moig, Cr. β-lactamase. As to the kind of experiment: β-lactamase inhibition I50. It is filed as biochemical.
For data set [12], the target named is T2, Escherichia coli JT4 β-lactamase (Escherichia coli, UniProt P62593).
T2 construct: host or cells: Escherichia coli JT4
The experiment in a line: β-lactamase inhibition I50. In kind it is biochemical.

Data set [13] addresses T3, Staphylococcus aureus Russell β-lactamase (Staphylococcus aureus, UniProt P00807).
T3 construct: host or cells: Staphylococcus aureus Russell
The experiment in a line: β-lactamase inhibition I50. It is filed as biochemical.

The target of data set [14] is Pseudomonas aeruginosa β-lactamase. As to the kind of experiment: β-lactamase inhibition I50. In kind it is biochemical.
The target in data set [15] is T4, Pseudomonas dalgleish β-lactamase (Pseudomonas aeruginosa, UniProt P16897).
T4 construct: host or cells: Pseudomonas aeruginosa Dalgleish
The experiment in a line: β-lactamase inhibition I50. It is filed as biochemical.

Data set [16] concerns the target Proteus mirabilis C889 β-lactamase. As to the kind of experiment: β-lactamase inhibition I50. It is filed as biochemical.
Data set [17] can be described thus: Blood levels in mice after oral administration. Particulars: mouse, 20 mg/kg, read-out: Blood level. It is filed as in vivo. The method, then:
b. Blood levels in mice after oral administration of 20 mg/kg of sodium O-methylclavulanate

Data set [18] is described as follows: Blood levels in mice after sub-cutaneous administration. To be noted: mouse, sc, 50 mg/kg, read-out: Blood level, mean result for 5 mice; for concentration at 0.5 h: 30 min; for concentration at 0.75 h: 45 min; for concentration at 1 h: 60 min; for concentration at 1.5 h: 90 min. In kind it is in vivo. The method, then: a. Blood levels in mice after sub-cutaneous administration of 50 mg/kg of a solution of sodium O-methylclavulanate

The test system of data set [19] is 3 strains of Straphylococcus aureus and 3 strains of R+ E. coli. The experiment in a line: MIC of sodium O-methylclavulanate alone against each test organism. To be noted: read-out: MIC of sodium O-methylclavulanate against each test organism. It is filed as cell-based, Staphylococcus aureus; E. coli. Here is the method: as §1
The MIC of sodium O-methylclavulanate against each test organism was in the range 20-40 μg/ml.

A short description of data set [20]: Toxicity in mice, sub-cutaneous administration (LD50). To be noted: mouse, in vivo, sc.
In data set [21] the test system is E. coli JT 39 (R+) infection. The experiment in a line: CD50 of amoxycillin with a salt of O-ethylclavulanic acid or clavulanic acid, dosing at 1 and 5 hours. In kind it is in vivo. To be noted: (×2) mice, sub-cutaneous at 1 and 5 hours. Here is the method: (§2) e. CD50 values of amoxycillin alone and together with a salt of O-ethylclavulanate acid against an E. coli JT 39 (R^+) infection. The test compounds were administered to mice sub-cutaneously in freshly prepared buffered saline (0.4 mg/ml) at 1 hour and 5 hours post inter peritoneal infection.

The subject of data set [22] is E. coli JT 39 (R+) infection. As to the kind of experiment: CD50 with sodium O-methylclavulanate or sodium clavulanate as synergist, dosing at 1 and 5 hours. To be noted: (×2) sub-cutaneous at 1 and 5 hours post infection. It is filed as in vivo. Here is the method:
d. […]
The test compounds were administered sub-cutaneously in freshly prepared buffered saline at 1 hour and 5 hours post intra peritoneal infection: […]

Data set [23] has as its system E. coli JT 39 (R+) infection. The experiment in a line: CD50 of amoxycillin with a salt of O-ethylclavulanic acid or clavulanic acid, similar test dosing at 1, 3 and 5 hours. In kind it is in vivo. Particulars: (×3) dosing at 1, 3 and 5 hours post infection. The method, then:
as §2
In a similar test dosing at 1, 3 and 5 hours post infection the following results were obtained: […]

Data set [24] can be described thus: Blood level in test mammals. In kind it is in vivo. Particulars: compared with an equivalent amount of the salt of clavulanic acid.
Where [25] appears, read: columns Synergist = Salt of clavulanic acid.

SMILES strings stand for the structures. Structures can show the parent of a compound that is named as a salt. Bounds are passed on as bounds.

T3 sequence (P00807 25-281): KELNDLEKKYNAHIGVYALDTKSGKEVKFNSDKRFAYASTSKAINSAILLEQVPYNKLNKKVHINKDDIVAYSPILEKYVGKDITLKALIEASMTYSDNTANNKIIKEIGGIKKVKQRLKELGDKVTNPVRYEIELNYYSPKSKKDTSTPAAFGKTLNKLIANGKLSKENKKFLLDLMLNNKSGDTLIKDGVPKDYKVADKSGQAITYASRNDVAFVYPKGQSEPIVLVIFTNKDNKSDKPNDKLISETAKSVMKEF
T2 sequence (P62593 24-286 limits assumed): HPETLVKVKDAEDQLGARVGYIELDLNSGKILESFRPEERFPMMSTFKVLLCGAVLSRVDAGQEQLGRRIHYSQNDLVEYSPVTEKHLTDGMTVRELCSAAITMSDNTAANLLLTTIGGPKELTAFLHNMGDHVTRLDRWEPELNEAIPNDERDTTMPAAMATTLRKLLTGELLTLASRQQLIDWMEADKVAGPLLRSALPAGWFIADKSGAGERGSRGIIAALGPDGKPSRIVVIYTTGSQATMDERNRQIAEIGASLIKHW
T4 sequence (P16897 18-288): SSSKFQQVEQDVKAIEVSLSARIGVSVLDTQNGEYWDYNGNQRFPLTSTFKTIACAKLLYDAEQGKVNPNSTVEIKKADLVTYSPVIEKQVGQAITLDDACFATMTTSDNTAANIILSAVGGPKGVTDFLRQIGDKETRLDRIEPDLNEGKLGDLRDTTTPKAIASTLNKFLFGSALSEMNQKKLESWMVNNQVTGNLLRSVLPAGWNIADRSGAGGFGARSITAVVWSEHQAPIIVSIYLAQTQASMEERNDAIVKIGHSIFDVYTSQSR
T1 sequence (P00811 20-377): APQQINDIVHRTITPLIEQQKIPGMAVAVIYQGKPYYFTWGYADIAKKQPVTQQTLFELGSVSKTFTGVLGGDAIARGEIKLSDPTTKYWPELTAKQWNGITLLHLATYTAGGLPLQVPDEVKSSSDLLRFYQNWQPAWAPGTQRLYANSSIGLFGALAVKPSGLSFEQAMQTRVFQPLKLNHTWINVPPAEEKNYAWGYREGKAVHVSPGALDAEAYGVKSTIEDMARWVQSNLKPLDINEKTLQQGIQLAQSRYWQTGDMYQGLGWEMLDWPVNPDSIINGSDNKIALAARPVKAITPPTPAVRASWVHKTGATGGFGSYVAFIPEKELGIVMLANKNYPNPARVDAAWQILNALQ

For `CC1(C)S[C@@H]2[C@H](NC(=O)[C@H](N)c3ccc(O)cc3)C(=O)N2[C@H]1C(=O)O` [Amoxycillin], in data set [1], the ED50 was over 1000 mg/kg.
Regarding `CC1(C)S[C@@H]2[C@H](NC(=O)[C@H](N)c3ccccc3)C(=O)N2[C@H]1C(=O)O` [Ampicillin, ampicillin], the MIC in data set [2] is over 2560 µg/mL; in data set [3], 80 µg/mL; in data set [4], 640 µg/mL; in data set [5], 1280 µg/mL; in [6], 2560 µg/mL; in [7], 640 µg/mL. Also, the MIC in data set [8] was over 250 µg/mL.
As to `COC/C=C1\O[C@@H]2CC(=O)N2[C@H]1C(=O)OC` [Example 1, Methyl 9--O--methylclavulanate], the IC50 in [9] is 13600 nM; in data set [12] it was 3960 nM; in data set [13] it was 2200 nM. Also, the “β-lactamase inhibition I50, Klebsiella aerogenes E70” value in data set [10] is 0.25 µg/mL. Moreover, in data set [11], the “β-lactamase inhibition I50, P. moig, Cr.” value was 0.68 µg/mL. The “β-lactamase inhibition I50, Pseudomonas aeruginosa” value in data set [14] amounted to 1.9 µg/mL.
Consider `COC/C=C1\O[C@@H]2CC(=O)N2[C@H]1C(=O)OCc1ccccc1` [Example 2, Benzyl 9-O-methylclavulanate], for which, in data set [10], the “β-lactamase inhibition I50, Klebsiella aerogenes E70” value is 0.05 µg/mL. Moreover, the IC50 in data set [15] is under 231 nM; in data set [12], 330 nM; in data set [13] it was 165 nM. Moreover, the “β-lactamase inhibition I50, Proteus mirabilis C889” value in data set [16] was under 0.07 µg/mL. Also, the “β-lactamase inhibition I50, Pseudomonas aeruginosa” value in [14] amounted to 1.4 µg/mL.
For the compound `COC/C=C1\O[C@@H]2CC(=O)N2[C@H]1C(=O)O` [Example 3, Sodium 9-O-methylclavulanate], the “β-lactamase inhibition I50, Klebsiella aerogenes E70” value in data set [10] is 0.07 µg/mL. For the same compound, the concentration at 0.25 h in [17] (15 min) stood at 5200 ng/mL. Further, the concentration at 0.5 h is 3400 ng/mL in data set [17] (30 min) and 7900 ng/mL in data set [18]. The concentration at 0.75 h in [17] (45 min) worked out at 2200 ng/mL; in data set [18], 4100 ng/mL. Besides, the concentration at 1 h stood at 1200 ng/mL in data set [17] (60 min) and 1400 ng/mL in data set [18]. In addition, the concentration at 1.5 h in [17] (90 min) is 500 ng/mL; in data set [18] it was 480 ng/mL. In data set [18], the concentration at 10 min is 14500 ng/mL. Besides, the concentration at 20 min in data set [18] was 12800 ng/mL. Besides, the MIC in [19] lay in the range of 20 to 40 µg/mL. Moreover, the IC50 in [12] is 844 nM; in data set [13] it was 235 nM. The “β-lactamase inhibition I50, Proteus mirabilis C889” value in data set [16] is 0.01 µg/mL.
For the compound `COC(=O)[C@H]1/C(=C/COCc2ccccc2)O[C@@H]2CC(=O)N21` [Example 4, Methyl 9-O-benzylclavulanate], the “β-lactamase inhibition I50, Klebsiella aerogenes E70” value in data set [10] was 0.8 µg/mL. Further, the IC50 in [12] is 2640 nM; in data set [13], 16.5 nM.
With `O=C(O)[C@H]1/C(=C/COCc2ccccc2)O[C@@H]2CC(=O)N21` [Example 5, Sodium 9-O-benzylclavulanate], the “β-lactamase inhibition I50, Klebsiella aerogenes E70” value in data set [10] turned out to be 0.04 µg/mL. The LD50 in data set [20] was over 250 mg/kg. Moreover, the results for the IC50 in data set [15], in data set [12] and in data set [13] were 27.7 nM, 346 nM and 17.3 nM, respectively. In data set [16], the “β-lactamase inhibition I50, Proteus mirabilis C889” value was found to be 0.02 µg/mL.
In the case of `CCOC(=O)COC/C=C1\O[C@@H]2CC(=O)N2[C@H]1C(=O)OCc1ccccc1` [Example 6, Benzyl 9-O-ethoxycarbonylmethylclavulanate], the “β-lactamase inhibition I50, Klebsiella aerogenes E70” value in [10] was 0.30 µg/mL. In addition, the figures for the IC50 in data set [12] and in data set [13] were 373 nM and 320 nM, respectively. For the same compound, in data set [16], the “β-lactamase inhibition I50, Proteus mirabilis C889” value stood at 1.0 µg/mL.
With `CCOC(=O)COC/C=C1\O[C@@H]2CC(=O)N2[C@H]1C(=O)O` [Example 7, Sodium 9-O-ethoxycarbonylmethylclavulanate], in data set [10], the “β-lactamase inhibition I50, Klebsiella aerogenes E70” value stood at 0.034 µg/mL. Further, the values for the IC50 in data set [12] and in data set [13] were 561 nM and 154 nM, respectively. Further, in [16], the “β-lactamase inhibition I50, Proteus mirabilis C889” value was determined as 0.025 µg/mL.
In data set [20], `N#CCOC/C=C1\O[C@@H]2CC(=O)N2[C@H]1C(=O)O` [Example 12, Sodium 9-O-cyanomethylclavulanate] gave an LD50 of over 250 mg/kg.
Consider `CC1(C)S[C@@H]2[C@H](NC(=O)[C@H](N)c3ccc(O)cc3)C(=O)N2[C@H]1C(=O)O` [Sodium Amoxycillin], for which the “CD50 of Sodium Amoxycillin alone” value in data set [21] (setting [25]), in data set [22] (columns Synergist = Sodium clavulanate) and in data set [23] (setting [25]) was over 1000 mg/kg each time. The ED50 in data set [21] (Escherichia coli, sc, columns Synergist = Salt of O-ethylclavulanic acid, read-out: CD50 of Sodium Amoxycillin alone) was over 1000 mg/kg; in [22] (Escherichia coli, sc, columns Synergist = Sodium O-methylclavulanate, read-out: CD50 of Sodium Amoxycillin alone) it was over 1000 mg/kg; in [23] (Escherichia coli, in Mus musculus, sc, columns Synergist = Salt of O-ethylclavulanic acid, read-out: CD50 of Sodium Amoxycillin alone) it was over 1000 mg/kg.
As to `O=C(O)[C@H]1/C(=C/CO)O[C@@H]2CC(=O)N21` [Sodium clavulanate, reference compound], in data set [18], the concentration at 10 min was determined as 9300 ng/mL, the concentration at 20 min is 8700 ng/mL, the concentration at 0.5 h amounted to 2990 ng/mL and the concentration at 0.75 h was 1950 ng/mL. In data set [18], the concentration at 1 h stood at 500 ng/mL and the concentration at 1.5 h came out at 90 ng/mL.
Turning to `COC/C=C1\O[C@@H]2CC(=O)N2[C@H]1C(=O)O` [salt of O-methylclavulanic acid], in [24], the “Blood level after administration, in words” value is listed as “more prolonged blood level”.

Broadly, the IC50 is the concentration that inhibits the measured activity by half. Read a high IC50 as a need for much substance. One may read the LD50 as the dose expected to kill half of the subjects tested. Higher therefore signals lower toxicity.
